Results published in ChEMBL document CHEMBL3227932, “Conformations, DNA binding parameters, and antileukemic activity of certain cytotoxic protoberberine alkaloids” (J Med Chem, 1979).
≈ marks a conversion by molar mass, not a printed value.

Columns and labels:
[1] = test system: P388; assay: Antitumor activity against mouse P388 cells allografted in mouse at 12.5 mg/kg; assay type: functional
[2] = test system: Mus musculus; assay: Toxicity in mouse P388 cells allografted mouse at 3.13 mg/kg; assay type: organism-based; parameters: dose 3.13 mg/kg; conditions: in vivo
[3] = test system: Mus musculus; assay: Toxicity in mouse P388 cells allografted mouse at 100 mg/kg; assay type: organism-based; parameters: dose 100 mg/kg; conditions: in vivo
[4] = test system: P388; assay: Antitumor activity against mouse P388 cells allografted in mouse at 3.13 mg/kg; assay type: functional
[5] = test system: Mus musculus; assay: Toxicity in mouse P388 cells allografted mouse at 200 mg/kg; assay type: organism-based; parameters: dose 200 mg/kg; conditions: in vivo
[6] = test system: P388; assay: Antitumor activity against mouse P388 cells allografted in mouse at 6.25 mg/kg; assay type: functional
[7] = test system: Mus musculus; assay: Toxicity in mouse P388 cells allografted mouse at 400 mg/kg; assay type: organism-based; parameters: dose 400 mg/kg; conditions: in vivo
[8] = test system: KB; assay: Cytotoxicity against human KB cells; assay type: functional; conditions: read-out: ED50 (the source's name)
[9] = test system: Mus musculus; assay: Toxicity in mouse P388 cells allografted mouse at 50 mg/kg; assay type: organism-based; parameters: dose 50 mg/kg; conditions: in vivo
[10] = test system: Mus musculus; assay: Toxicity in mouse P388 cells allografted mouse at 6.25 mg/kg; assay type: organism-based; parameters: dose 6.25 mg/kg; conditions: in vivo
[11] = test system: Mus musculus; assay: Toxicity in mouse P388 cells allografted mouse at 12.5 mg/kg; assay type: organism-based; parameters: dose 12.5 mg/kg; conditions: in vivo
[12] = test system: Mus musculus; assay: Toxicity in mouse P388 cells allografted mouse at 25 mg/kg; assay type: organism-based; parameters: dose 25 mg/kg; conditions: in vivo
[13] = test system: P388; assay: Antitumor activity against mouse P388 cells allografted in mouse at 25 mg/kg; assay type: functional
[14] = test system: P388; assay: Antitumor activity against mouse P388 cells allografted in mouse at 50 mg/kg; assay type: functional
[15] = test system: P388; assay: Antitumor activity against mouse P388 cells allografted in mouse at 400 mg/kg; assay type: functional
[16] = test system: P388; assay: Antitumor activity against mouse P388 cells allografted in mouse at 200 mg/kg; assay type: functional
[17] = test system: P388; assay: Antitumor activity against mouse P388 cells allografted in mouse at 100 mg/kg; assay type: functional

Structure (SMILES)	T/C [1]	Activity [3]	Activity [5]	T/C [6]	Activity [7]	EC50 [8] [µg/mL]	Activity [9]	Activity [10]	Activity [11]	other results
COc1cc2c(cc1OC)-c1c(C)c3ccc(OC)c(OC)c3c[n+]1CC2.[Cl-]	107	Toxic	Toxic	102	Toxic	4.76	Toxic	Non-toxic	Non-toxic	Activity [2]: Non-toxic; T/C [4]: 105
COc1cc2c[n+]3c(c(C)c2cc1OC)-c1cc2c(cc1CC3)OCO2.[I-]	113	Toxic	Toxic	106	Toxic	2.98		Non-toxic	Non-toxic	Activity [12]: Non-toxic; T/C [13]: 116
COc1cc2c(cc1OC)[C@H](CO)[C@H]1c3cc4c(cc3CCN1C2)OCO4 (relative stereo)						> 100				
COc1cc2c(cc1OC)[C@@H](CO)[C@H]1c3cc4c(cc3CCN1C2)OCO4 (relative stereo)		Non-toxic	Non-toxic		Non-toxic	2.65 (≈ 7.17 µM)	Non-toxic			T/C [14]: 115; T/C [15]: 129; T/C [16]: 105; T/C [17]: 98
COc1cc2c(cc1OC)[C@H](C)[C@H]1c3cc4c(cc3CCN1C2)OCO4 (relative stereo)						> 100				
COc1cc2c(cc1OC)[C@@H](C)[C@H]1c3cc4c(cc3CCN1C2)OCO4 (relative stereo)						0.47 (≈ 1.33 µM)				
